From patent US20210127673A1, “HERBICIDES” (SYNGENTA PARTICIPATIONS AG, priority 2016, published 2021)

Key:
Type in all cases: in vivo
Settings in all cases: evaluated after 13 days
[1] = system: Triticum aestivium (TRZAW); assay: Pre-emergence herbicidal activity, Triticum aestivium; set-up: key: 5=total damage to plant; 0=no damage to plant
Description: (§1) Seeds of a variety of test species were sown in standard soil in pots: Triticum aestivium (TRZAW), Avena fatua (AVEFA), Alopecurus myosuroides (ALOMY), Echinochloa crus-galli (ECHCG), Lolium perenne (LOLPE), Zea Mays (ZEAMX), Abutilon theophrasti (ABUTH), Amaranthus retroflexus (AMARE) and Setaria faberi (SETFA). After cultivation for one day (pre-emergence) under controlled conditions in a glasshouse (at 24/16° C., day/night; 14 hours light; 65% humidity), the plants were sprayed with an aqueous spray solution derived from the formulation of the technical active ingredient in acetone/water (50:50) solution containing 0.5% Tween 20 (polyoxyethelyene sorbitan monolaurate, CAS RN 9005-64-5). The test plants were then grown in a glasshouse under controlled conditions (at 24/16°, day/night; 14 hours light; 65% humidity) and watered twice daily. After 13 days, the test was evaluated (5=total damage to plant; 0=no damage to plant).

[2] = system: Avena fatua (AVEFA); assay: Pre-emergence herbicidal activity, Avena fatua; set-up: key: 5=total damage to plant; 0=no damage to plant
Description: as §1

[3] = system: Echinochloa crus-galli (ECHCG); assay: Post-emergence herbicidal activity, Echinochloa crus-galli; set-up: key: 5=total damage to plant; 0=no damage to plant
Description: (§2) Seeds of a variety of test species were sown in standard soil in pots: Triticum aestivium (TRZAW), Avena fatua (AVEFA), Alopecurus myosuroides (ALOMY), Echinochloa crus-galli (ECHCG), Lolium perenne (LOLPE), Zea Mays (ZEAMX), Abutilon theophrasti (ABUTH), Amaranthus retroflexus (AMARE) and Setaria faberi (SETFA). After 8 days cultivation (post-emergence) under controlled conditions in a glasshouse (at 24/16° C., day/night; 14 hours light; 65% humidity), the plants were sprayed with an aqueous spray solution derived from the formulation of the technical active ingredient in acetone/water (50:50) solution containing 0.5% Tween 20 (polyoxyethelyene sorbitan monolaurate, CAS RN 9005-64-5). The test plants were then grown in a glasshouse under controlled conditions (at 24/16° C., day/night; 14 hours light; 65% humidity) and watered twice daily. After 13 days, the test was evaluated (5=total damage to plant; 0=no damage to plant).

[4] = system: Triticum aestivium (TRZAW); assay: Post-emergence herbicidal activity, Triticum aestivium; set-up: key: 5=total damage to plant; 0=no damage to plant
Description: as §2

[5] = system: Alopecurus myosuroides (ALOMY); assay: Post-emergence herbicidal activity, Alopecurus myosuroides; set-up: key: 5=total damage to plant; 0=no damage to plant
Description: as §2

[6] = system: Setaria faberi (SETFA); assay: Pre-emergence herbicidal activity, Setaria faberi; set-up: key: 5=total damage to plant; 0=no damage to plant
Description: as §1

[7] = system: Lolium perenne (LOLPE); assay: Pre-emergence herbicidal activity, Lolium perenne; set-up: key: 5=total damage to plant; 0=no damage to plant
Description: as §1

[8] = system: Setaria faberi (SETFA); assay: Post-emergence herbicidal activity, Setaria faberi; set-up: key: 5=total damage to plant; 0=no damage to plant
Description: as §2

[9] = system: Alopecurus myosuroides (ALOMY); assay: Pre-emergence herbicidal activity, Alopecurus myosuroides; set-up: key: 5=total damage to plant; 0=no damage to plant
Description: as §1

[10] = system: Echinochloa crus-galli (ECHCG); assay: Pre-emergence herbicidal activity, Echinochloa crus-galli
Description: as §1

[11] = system: Avena fatua (AVEFA); assay: Post-emergence herbicidal activity, Avena fatua
Description: as §2

[12] = system: Lolium perenne (LOLPE); assay: Post-emergence herbicidal activity, Lolium perenne; set-up: key: 5=total damage to plant; 0=no damage to plant
Description: as §2

Structure (SMILES)	Control of TRAZW after pre-emergence application (score 0-5) ([1]; 1000 g/ha)	Control of AVEFA after pre-emergence application (score 0-5) ([2]; 1000 g/ha)	Control of ECHCG after post-emergence application (score 0-5) ([3]; 1000 g/ha)	Control of TRAZW after post-emergence application (score 0-5) ([4]; 1000 g/ha)	Control of ALOMY after post-emergence application (score 0-5) ([5]; 1000 g/ha)	Control of SETFA after pre-emergence application (score 0-5) ([6]; 1000 g/ha)	Control of LOLPE after pre-emergence application (score 0-5) ([7]; 1000 g/ha)	Control of SETFA after post-emergence application (score 0-5) ([8]; 1000 g/ha)	Control of ALOMY after pre-emergence application (score 0-5) ([9]; 1000 g/ha)	Control of ECHCG after pre-emergence application (score 0-5) ([10]; 1000 g/ha)	Control of AVEFA after post-emergence application (score 0-5) ([11]; 1000 g/ha)	Control of LOLPE after post-emergence application (score 0-5) ([12]; 1000 g/ha)	further results
O=C(Nc1ccc(-c2cncc(F)c2)nc1C(F)(F)F)OC1CCS(=O)(=O)C1 (stereo not shown) [Compound B66]	0	2	4	1	0	5	1	5	0	3	–	–	–
O=C(Nc1cc(Cl)cc(Cl)c1)Nc1ccc(-c2cncc(F)c2)nc1C(F)(F)F [Compound B88]	–	–	–	–	–	–	–	–	–	–	–	–	Control of TRAZW after pre-emergence application (score 0-5) ([1]; 250 g/ha): 0; Control of AVEFA after post-emergence application (score 0-5) ([11]; 250 g/ha): 1; Control of LOLPE after post-emergence application (score 0-5) ([12]; 250 g/ha): 0; Control of AVEFA after pre-emergence application (score 0-5) ([2]; 250 g/ha): 0; Control of ECHCG after post-emergence application (score 0-5) ([3]; 250 g/ha): 1; Control of TRAZW after post-emergence application (score 0-5) ([4]; 250 g/ha): 0; Control of ALOMY after post-emergence application (score 0-5) ([5]; 250 g/ha): 0; Control of SETFA after pre-emergence application (score 0-5) ([6]; 250 g/ha): 2; Control of LOLPE after pre-emergence application (score 0-5) ([7]; 250 g/ha): 2; Control of SETFA after post-emergence application (score 0-5) ([8]; 250 g/ha): 1; Control of ALOMY after pre-emergence application (score 0-5) ([9]; 250 g/ha): 0; Control of ECHCG after pre-emergence application (score 0-5) ([10]; 250 g/ha): 1
O=C(NCc1ccc(Cl)cc1)Nc1ccc(-c2cncc(F)c2)nc1C(F)(F)F [Compound B38]	0	0	2	0	0	3	0	4	0	1	2	2	–
CC(C)NC(=O)Nc1ccc(-c2cncc(F)c2)nc1C(F)(F)F [Compound B37, 1-[6-(5-fluoro-3-pyridyl)-2-(trifluoromethyl)-3-pyridyl]-3-isopropyl-urea]	0	2	5	0	0	5	1	–	0	4	3	2	–
CN(C(=O)OC(C)(C)C)c1ccc(-c2cc(F)c[n+]([O-])c2)nc1C(F)(F)F [Compound B1, tert-butyl N-[6-(5-fluoro-1-oxido-pyridin-1-ium-3-yl)-2-(trifluoromethyl)-3-pyridyl]-N-methyl-carbamate]	0	2	4	0	1	4	1	5	0	2	4	2	–
CC(C)(C)OC(=O)Nc1ccc(-c2cncc(C(F)F)c2)nc1C(F)(F)F [Compound B5]	0	0	3	0	1	4	0	4	0	2	1	1	–
CC(C)(C#N)OC(=O)Nc1ccc(-c2cncc(F)c2)nc1C(F)(F)F [Compound B118]	0	0	3	0	0	4	0	4	0	2	3	1	–
CN(C)C(=O)Nc1ccc(-c2cncc(F)c2)nc1C(F)(F)F [Compound B52]	0	2	4	0	0	–	1	5	0	3	3	3	–
CC(C)(C)OC(=O)Nc1ccc(-c2cncc(OC(F)(F)F)c2)nc1C(F)(F)F [Compound B36]	0	2	3	0	0	5	0	–	0	3	3	1	–
COC(=O)c1nc(-c2cncc(F)c2)ccc1NC(=O)OC(C)(C)C [Compound B77]	0	0	1	0	0	–	0	2	0	1	1	1	–
CN(C)C(=O)N(C)c1ccc(-c2cncc(F)c2)nc1C(F)(F)F [Compound B74]	1	2	4	0	0	5	1	5	1	4	–	–	–
